“And” between values parts separate entries of the source, which are not always exact repeats. Equal entries are not always repeated. “Also recorded” adds a separate entry of the source.

Data set [1] is described as follows: Testing of further agents for Zn(II) detection/activation (method not described). An excerpt:
[drawing 1] wherein R═(CH2)n(n=1 or 2).

Data set [2] can be described thus: Competitive binding assay with fluorophore FluoZin-1. The conditions noted are these: competitive assay against FluoZin-1; read-out: dissociation constant (Kd) of the Gd(III)-Zn(II) complex. The method, then: (§1) To test the binding ability of the acetate ligands to Zn(II), relaxivity measurements of 1 were measured in the absence and presence of ZnCl2. The relaxitivity of 1 in HEPES buffer without zinc was 2.34 mM^−1 s^−1, as is typical for small molecule contrast agents for which q=0 (8). […] As ZnCl2 was added, the relaxivity increased to 5.3 mM^−1 s^−1 indicative of a q=1 complex (See FIG. 3, left). Similar studies were conducted using MgCl2 and CaCl2 to test for selectivity of the ligand for zinc over other dications known to have higher cellular concentrations and which have similar binding affinities for carboxylic acids. […] A competitive binding assay gave a dissociation constant of 2.38×10^−4 M for the Gd(III)-Zn(II) complex.
(§2) To evaluate the effectiveness of Compound 1 as an in vivo probe, the stability of Zn-Compound 1 was investigated. Using the commercially available fluorophore FluoZinTM-1 (Invitrogen), the binding constant of zinc can be determined by a competitive assay. Since the Zn(II)-binding regions of the dye and Compound 1 are identical, similar binding constants are to be expected. […] To confirm there was a measurable difference between zinc concentrations, T1 was measured on these same samples on a 14.1 T magnet and on a 1.4 T magnet.

Data set [3] in a line: Relaxivity measurements with CaCl2. The conditions noted are these: CaCl2, even at 3-fold excess of the dication. It is filed as physicochemical. The method, then: (§3) Left: Relaxivity of Compound 1 in the presence of XCl2, where X=Zn, Ca, and Mg. All solutions were made in 100 mM KCl/100 mM HEPES at ph=7.4. Right: Relaxivity of Zn-1, 3:1 (Zn:Gd), following titration of EDTA.
as §1

Data set [4] in a line: T1-weighted phantom MR images with Mg(II). The conditions noted are these: 4.7 T magnet; 1 mM Compound 1 in HEPES, 1 mM MgCl2. The method, then: (§4) A. Compound 1 selectivity. Images of a 1 mM solution of Compound 1 in HEPES buffer. (A) HEPES buffer only; (B) Compound 1; (C) Compound 1 with 1 mM ZnCl2; (D) Compound 1 with 1 mM MgCl2; (E) Compound 1 with 1 mM CaCl2. B. Compound 1 sensitivity. Images of a 1 mM solution of Compound 1 in HEPES buffer with varying zinc concentrations. (A) 0 μM Zn; (B) 50 μM Zn; (C) 100 μM Zn; (D) 500 μM Zn; (E) 1 mM Zn. (TR=100.0 ms, TE=14.3 ms, FOV=2.5/2.0 cm, data matrix=256×256. TR=repetition time; TE=echo time; FOV=field of view).
as §2

Data set [5] is described as follows: Stability in 0.1 M phosphate buffer (relaxivity, ICP of supernatant). Format: physicochemical. As for the experimental part:
Compound 1 was monitored for 24 hours in a 0.1 M phosphate buffer to determine its stability in solution. Due to the low solubility of GdPO4 (Ksp=10^−22.26 mol^2/L^2) any dissociation of gadolinium from Compound 1 will precipitate, causing a subsequent decrease in relaxivity which was not seen. A more accurate measurement of the amount of gadolinium dissociation can be made from centrifuging the samples and collecting aliquots of the supernatant for evaluation of gadolinium concentration via ICP.

Data set [6] is described as follows: Relaxivity measurements in the absence and presence of ZnCl2. Format: physicochemical. As for the experimental part: as §3, §1
After 1 was left to equilibrate at 37° C. for 3 days with an excess of zinc, a relaxivity of 9.2 mM^−1 s^−1 was measured, indicating the species has a value of q=2. This measurement corresponds well to a structure proposed by embodiments of the present invention in which the pendant ligands have left the gadolinium for the zinc, leaving two open coordination sites for water to bind. […] Although an understanding of the mechanism is not necessary to practice the present invention and the present invention is not limited to any particular mechanism of action, in some embodiments, this is due to sequestration of Zn(II) by EDTA which leaves the carboxylic acids available to bind to Gd(III) and close the coordination sites (See FIG. 3, right). Adding excess EDTA had no effect on the relaxivity, providing that the Gd(III) ions are not sequestered by EDTA as expected given the high binding constant (˜10^16) for Gd-EDTA for which q=1.
Proton relaxivity measurements on Compound 1 were also performed while titrating with increasing amounts of Zn(II) up to 1:1.4 (Gd: Zn) equivalents. […] The observed linear dependence also rules out the possibility of a 2:1 (Gd:Zn) complex formation.

Data set [7] in a line: T1-weighted phantom MR images with Ca(II). The conditions noted are these: 4.7 T magnet; 1 mM Compound 1 in HEPES, 1 mM CaCl2. The method, then: as §4, §2
Data set [8] in a line: Relaxivity measurements with MgCl2. The conditions noted are these: MgCl2, even at 3-fold excess of the dication. Format: physicochemical. As for the experimental part:
as §3, §1

A short description of data set [9]: T1-weighted phantom MR images with Zn(II). As for the experimental part:
as §4, §2

The subject of data set [10] is NIH/3T3 cells. The data set is described as follows: Cellular uptake, Gd(III) by ICP-MS. Format: cell-based. The conditions noted are these: 500 μM. As for the experimental part: (§5) The cell doubling time for NIH/3T3 cells is around 16 hours and one can see over twice as many cells at 24 hours than at 8 hours as one would expect, implying greater than 99% cell viability. B. Compound 1 is taken up at a constant rate for up to 8 hours.
(§6) Compound 1 was effectively taken up by NIH/3T3 cells at a constant rate for the first 8 hours of treatment. The maximal intracellular concentration of Compound 1 of approximately 10^−14 mol Gd/cell is achieved at 8 hours and maintained up to 24 hours (FIG. 6 B). NIH/3T3 cells were seeded at 10^5 cells per well in 24-well tissue culture plates with Dulbecco's modified Eagle's medium (DMEM) containing 10% bovine calf serum and incubated overnight in a 5% CO2 incubator at 37° C. The media was then changed and Compound 1 added at a concentration of 500 μM. After 2, 4, 8, and 24 hours, cells were washed three times with 1×PBS and exposed to 250 μL of 0.25% trypsin and harvested. Cells were diluted with an equal volume of 0.4% trypan blue and counted on a hemacytometer. For cellular uptake of Compound 1 into cells, cells were incubated with concentrated nitric acid at 70° C. for 3 hours. The dissolved cells were diluted into a 5 ml, solution with 3% nitric acid and 5 ppb of an indium internal standard. The concentration of Gd(III) was then determined using ICP-MS (induction coupled plasma mass spectrometry).

Data set [11] relates to NIH/3T3 cells. The data set is described as follows: Cell cytotoxicity, trypan blue staining. It is filed as cell-based. Details: cell viability: dose or concentration left out as unconfirmed. The method, then:
as §5, §6

With `Cc1cccc(OCCN2CCN(CC(=O)[O-])CCN(CC(=O)[O-])CCN(CC(=O)[O-])CC2)c1N(CC(=O)[O-])CC(=O)[O-].[Gd+3]` [second agent], the “activation towards Zn(II)” value in [1] is listed as “little activation”.
Usually Kd stands for the concentration at which binding is half-saturated. In the case of `Cc1cccc(OCCCN2CCN(CC(=O)[O-])CCN(CC(=O)[O-])CCN(CC(=O)[O-])CC2)c1N(CC(=O)[O-])CC(=O)[O-].[Gd+3]` [Compound 1], the Kd in data set [2] was 238 µM and 240 µM. Moreover, the “change in relaxivity values” in [3] and in [8] was “no significant change” throughout. In data set [4], the “MR image difference with Mg(II)” value is recorded as “no discernible difference”. Besides, the “decrease in relaxivity (Gd dissociation/precipitation)” value in data set [5] (0.1 M phosphate buffer, 24 hours) is “not seen”. Besides, the “change in [Gd] of supernatant (ICP)” value in [5] (0.1 M phosphate buffer, time-points up to 24 hours) is given as “no significant change”. The “dissociation constant of the gadolinium complex” value in data set [5] (suggested from phosphate buffer stability) is “on the order of that seen for Gd-DO3A”. Further, the relaxivity in [6] (HEPES buffer without zinc) is 2.34 mM⁻¹ s⁻¹; in data set [6] (HEPES buffer, ZnCl2 added), 5.3 mM⁻¹ s⁻¹; in data set [6] (equilibrated at 37° C. for 3 days with an excess of zinc) it was 9.2 mM⁻¹ s⁻¹. In data set [6] (in the presence of Zn(II)), the increase in relaxivity is reported as more than 100%. Besides, the “MR image difference with Ca(II)” value in data set [7] is “no discernible difference”. Also, the “MR image intensity in the presence of Zn(II)” value in data set [9] (4.7 T magnet, 1 mM Compound 1 in HEPES, 1 mM ZnCl2) was “increase in intensity”. For the same compound, the “levels of Zn(II) that can be detected” value in [9] (in vitro MR images) is given as “hundreds of micromolar”. Further, the “visualization of difference between 100 μM and 500 μM zinc” value in data set [9] (phantom images, 1 mM Compound 1, varying zinc concentrations) was “easily visualize the difference”. In addition, the uptake rate entry with NIH/3T3 cells [10] (first 8 hours of treatment) is “constant rate”. In addition, in the data set on NIH/3T3 cells [10] (achieved at 8 hours and maintained up to 24 hours), the maximal intracellular concentration entry was “approximately 10^−14 mol Gd/cell”. For the same compound, the cell death entry in the data set on NIH/3T3 cells [11] (0.5 mM, up to 24 hours, trypan blue staining) is on record as “no observable cell death”. Further, the cell viability entry in the data set with NIH/3T3 cells [11] (24 hours) is reported as “greater than 99%”. Besides, the cell proliferation result in the data set with NIH/3T3 cells [11] (incubation with Compound 1 up to 24 hours) is listed as “Normal proliferation; also recorded: proliferated exponentially at the expected rate”.

The values are drawn from patent publication US7906105B1, “Zinc-activated contrast agents” (Northwestern University, priority 2006, dated 2011).
